In article PMC4387075 (Neuropharmacology, 2015):
pEC50, pIC50: −log10 of the molar value. Entries after “also recorded” stand apart in the source; their conditions may differ. Like-named read-outs stand apart in the source and are kept apart here.

Columns and labels:
cerebellar granule cells = assay: Cell viability; conditions: for pIC50: read-out: IC50 for inhibition of glutamate neuroprotection, 1 mM glutamate in K5; for effect of agonist on viability of granule cells in K5: K5, 16 hours, MTT; for maximum effect on granule cell viability: percent of viability in K25 cultures, K5 media, 16 hours; for effect of antagonist on NMDA-induced increase in granule cell viability: 1 mM NMDA in K5, MK801 1 μM, JNJ16259685 300 μM
mGlu1 receptors = mGlu1 receptors (Rattus norvegicus, UniProt P23385); assay: PI hydrolysis; format: cell-based; conditions: for PI hydrolysis Emax, % glu: efficacy as percentage of glutamate efficacy, mean +/- 95% confidence interval; for agonist bias between PI hydrolysis and neuroprotection: from Emax values of both responses (Figure 7); for effect of antagonist on PI hydrolysis stimulated by quisqualate, DHPG and ACPD: agonists 100 μM, JNJ16259685 300 μM, CPCCOEt 200 μM, MPEP 10 μM
[1] = system: mGlu1 receptor-expressing CHO cells; conditions: ref Emery et al., 2012, cited from earlier work; for ERK phosphorylation or protection: transfected CHO cells; for protection from serum starvation: mGlu1 receptor-expressing CHO cells
mGlu1 receptor = conditions: mGlu1 receptor-expressing CHO cells; ref Emery et al., 2012; cited from earlier work
[2] = read-out: PI hydrolysis EC50, mean (95% confidence interval)

mGlu1 receptors, sequence (P23385 19-1199): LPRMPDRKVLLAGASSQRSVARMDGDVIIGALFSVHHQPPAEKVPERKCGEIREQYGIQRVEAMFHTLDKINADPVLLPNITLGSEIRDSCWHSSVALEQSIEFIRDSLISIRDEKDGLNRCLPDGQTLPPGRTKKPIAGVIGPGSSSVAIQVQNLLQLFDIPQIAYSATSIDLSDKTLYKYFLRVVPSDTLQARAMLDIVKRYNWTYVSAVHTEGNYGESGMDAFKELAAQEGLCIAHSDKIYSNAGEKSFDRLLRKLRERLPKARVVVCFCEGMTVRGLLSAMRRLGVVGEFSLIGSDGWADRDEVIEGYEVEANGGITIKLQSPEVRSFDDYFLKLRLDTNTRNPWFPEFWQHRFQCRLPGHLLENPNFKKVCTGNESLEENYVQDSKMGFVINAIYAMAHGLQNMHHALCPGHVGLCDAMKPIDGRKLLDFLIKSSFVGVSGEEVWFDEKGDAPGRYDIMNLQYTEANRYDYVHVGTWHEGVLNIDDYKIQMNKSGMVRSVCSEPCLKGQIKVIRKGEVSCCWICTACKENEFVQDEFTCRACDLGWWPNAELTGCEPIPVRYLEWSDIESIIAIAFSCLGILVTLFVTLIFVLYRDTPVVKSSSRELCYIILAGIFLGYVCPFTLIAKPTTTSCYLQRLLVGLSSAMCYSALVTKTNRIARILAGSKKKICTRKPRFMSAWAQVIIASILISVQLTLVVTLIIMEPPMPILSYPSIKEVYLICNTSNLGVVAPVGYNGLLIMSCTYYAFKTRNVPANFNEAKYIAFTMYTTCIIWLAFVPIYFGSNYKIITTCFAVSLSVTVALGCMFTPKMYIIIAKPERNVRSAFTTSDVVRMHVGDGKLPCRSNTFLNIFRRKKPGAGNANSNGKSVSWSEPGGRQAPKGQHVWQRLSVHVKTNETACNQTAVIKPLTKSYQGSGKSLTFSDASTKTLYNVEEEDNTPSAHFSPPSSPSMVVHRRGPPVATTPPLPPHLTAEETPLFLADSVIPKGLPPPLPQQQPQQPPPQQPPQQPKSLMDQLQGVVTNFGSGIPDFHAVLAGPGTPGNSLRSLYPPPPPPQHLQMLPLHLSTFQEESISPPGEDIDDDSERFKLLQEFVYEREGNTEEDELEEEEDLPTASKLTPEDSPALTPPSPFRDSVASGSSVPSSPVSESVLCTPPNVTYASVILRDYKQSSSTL

## 7-(Hydroxyimino)cyclopropa[b]chromen-1a-carboxylate ethyl ester [CPCCOEt]
Cerebellar granule cells
  pIC50: 3.91

## N[C@@]1(C(=O)O)CC[C@@H](C(=O)O)C1 [ACPD, (1S,3R)-1-aminocyclopentane-1,3-dicarboxylic acid]
mGlu1 receptors
  agonist type for PI hydrolysis compared to glutamate: partial agonists
  PI hydrolysis at 100 μM agonist compared to Locke's media only: significant increase
  PI hydrolysis Emax, % glu: 66 ± 1.4 % glu
  agonist bias between PI hydrolysis and neuroprotection: completely biased towards PI hydrolysis
Cerebellar granule cells
  effect of agonist on viability of granule cells in K5: not significantly increased
  maximum effect on granule cell viability: 49 ± 5%

## N[C@@H](CC(=O)O)C(=O)O [Aspartate, aspartate]
mGlu1 receptors
  pEC50: 4.72
  PI hydrolysis Emax, % glu: 103 ± 7.8 % glu
  agonist bias between PI hydrolysis and neuroprotection: balanced agonists
Cerebellar granule cells
  effect of agonist on viability of granule cells in K5: prevented

## N[C@@H](CS(=O)(=O)O)C(=O)O [Cysteic acid]
mGlu1 receptors
  PI hydrolysis Emax, % glu: 87 ± 4.2 % glu
mGlu1 receptors; [2]
  pEC50: 4.66
Cerebellar granule cells
  effect of agonist on viability of granule cells in K5: prevented

## N[C@@H](CS(=O)O)C(=O)O [Cysteine sulfinic acid]
mGlu1 receptors
  PI hydrolysis Emax, % glu: 82 ± 10 % glu
mGlu1 receptors; [2]
  pEC50: 4.54
Cerebellar granule cells
  effect of agonist on viability of granule cells in K5: prevented

## NC(C(=O)O)c1cc(O)cc(O)c1 (stereo not drawn) [DHPG, 3,5-dihydroxyphenylglycine]
mGlu1 receptors
  pEC50: 4.64
  agonist type for PI hydrolysis compared to glutamate: partial agonists
  PI hydrolysis at 100 μM agonist compared to Locke's media only: significant increase
  PI hydrolysis Emax, % glu: 69 ± 3.7 % glu
  agonist bias between PI hydrolysis and neuroprotection: completely biased towards PI hydrolysis
Cerebellar granule cells
  effect of agonist on viability of granule cells in K5: not significantly increased
[1]
  ERK phosphorylation or protection: do not stimulate

## N[C@@H](CCC(=O)O)C(=O)O [Glutamate, glutamate]
Cerebellar granule cells
  effect of agonist on viability of granule cells in K5: prevented
  maximum effect on granule cell viability: 65%

## N[C@@H](CCS(=O)(=O)O)C(=O)O [Homocysteic acid]
mGlu1 receptors
  PI hydrolysis Emax, % glu: 84 ± 7.4 % glu
mGlu1 receptors; [2]
  pEC50: 4.54
Cerebellar granule cells
  effect of agonist on viability of granule cells in K5: prevented

## COC1CCC(C(=O)c2ccc3nc4c(cc3c2)CCCO4)CC1 (stereo not drawn) [JNJ16259685]
mGlu1 receptors
  effect of antagonist on PI hydrolysis stimulated by quisqualate, DHPG and ACPD: significantly decreased
Cerebellar granule cells
  effect of antagonist on NMDA-induced increase in granule cell viability: blocked
  pIC50: 4.70

## C[C@]12N[C@H](Cc3ccccc31)c1ccccc12 [MK801]
Cerebellar granule cells
  effect of antagonist on NMDA-induced increase in granule cell viability: significantly inhibited

## Cc1cccc(C#Cc2ccccc2)n1 [MPEP]
mGlu1 receptors
  effect of antagonist on PI hydrolysis stimulated by quisqualate, DHPG and ACPD: no effect

## CN[C@H](CC(=O)O)C(=O)O [NMDA, N-methyl-D-aspartate]
Cerebellar granule cells
  maximum effect on granule cell viability: 73%

## N[C@@H](Cn1oc(=O)[nH]c1=O)C(=O)O [Quisqualate, quisqualate]
mGlu1 receptors
  agonist type for PI hydrolysis compared to glutamate: full agonist
  PI hydrolysis at 100 μM agonist compared to Locke's media only: significant increase
  PI hydrolysis Emax, % glu: 109 ± 7.8 % glu
  agonist bias between PI hydrolysis and neuroprotection: completely biased towards PI hydrolysis
Cerebellar granule cells
  effect of agonist on viability of granule cells in K5: not significantly increased; also recorded: no efficacy
[1]
  ERK phosphorylation or protection: do not stimulate

## O=C(O)CCCC(=O)O [glutaric acid]
mGlu1 receptor
  efficacy for PI hydrolysis: no efficacy
[1]
  protection from serum starvation: able to protect

## O=C(O)CCC(=O)O [succinic acid]
mGlu1 receptor
  efficacy for PI hydrolysis: no efficacy
[1]
  protection from serum starvation: able to protect
